Patent US8993762B2, “Total synthesis of thaxtomin A analogues and their intermediates” (Marrone Bio Innovations, Inc, priority 2013, dated 2015)

Legend:
plant cells = conditions: Lawrence et al., 1990; cited from earlier work
mustard plants = assay: Comparison of herbicidal activity, track-sprayer application to mustard plants; format: in vivo; conditions: fifteen day mustard plants; sprayed at 0.25 and 1.0 mg/mL; counted on the 7th and 14th days; four replicates
Protocol: Synthesized thaxtomin A and thaxtomin A from fermentation were separately dissolved in ethanol first (final ethanol concentration in the spraying solution was 2%), then added into 0.2% Glycosperse O-20 water solution. Sonication completely dissolved the thaxtomin A. The concentration of thaxtomin A was 0.25 and 1.0 mg/mL. Water with 2% ethanol and 0.2% Glycosperse O-20 was used as a blank control. Fifteen day mustard plants were used in the experiments. Four replicates for each concentration of thaxtomin A were carried out. Spraying was performed using a Track Sprayer. The herbicidal activity was graded as percent control. Herbicidal activity was counted on the 7th and 14th days, respectively.

Row | Structure (SMILES) | effect on plant cells (plant cells) | herbicidal activity graded as percent control, synthesized vs natural thaxtomin A (mustard plants)
1 | CN1C(=O)[C@](O)(Cc2cccc(O)c2)N(C)C(=O)[C@@H]1Cc1c[nH]c2cccc([N+](=O)[O-])c12 [Synthesized thaxtomin A, Thaxtomin A] | hypertrophy of plant cells at nanomolar amounts | no significant difference
2 | CN1C(=O)[C@](O)(Cc2cccc(O)c2)N(C)C(=O)[C@@H]1Cc1c[nH]c2cccc([N+](=O)[O-])c12 [thaxtomin A from fermentation, thaxtomin A] | – | no significant difference
